Our source for the Kd values is article PMC11915803, “Class B scavenger receptor resists WSSV replication by recognizing the viral lipid molecule and promoting phagocytosis” (Journal of Virology, 2025).

The target of the test is T1, PcSRB (rPcSRB).
T1 construct: recombinant, pET-32a(+) BamHI/XhoI, His-tagged, tag kept
Nature of the test: microscale thermophoresis, RED-tris-NTA labelled protein. It is filed as binding, Procambarus clarkii. As to conditions: PBS-T; His-tagged protein labelled, ligand unlabelled.

Structures are written as SMILES.

For the molecule `CC(C)CCC[C@@H](C)[C@H]1CC[C@H]2[C@@H]3CC=C4C=CCC[C@]4(C)[C@H]3CC[C@]12C` [CD3,5, cholesta-3,5-diene], the Kd (as a rule, the concentration at which binding is half-saturated) was determined as 4.5 µM.
